Measured values reported in patent US20070191287A1, “D-ribose for improving depression-like symptoms” (priority 2004, published 2007).

Legend:
[1] = tested on: mice; test: forced swimming test in mice; assay type: in vivo, mice (ddY-strain)
Method: Male 10 ddY-strain mice (5 weeks old, purchased from Japan SLC, Inc.) were used for each group as test animals. The animals were housed in groups of 20 mice in a plastic-made cage (26×43×16 cm; Clea Japan Inc.), and they were kept in the animal room maintained at 23±2° C. with 30 to 80% humidity, and illuminated for 12 hr (6:30 to 18:30). The animals were allowed free access to pellet diets (CRF-1, Oriental Yeast, Co., Ltd.), and tap water.
The experiment was carried out on the four groups, such as the groups treated with D-ribose at doses of 30 mg/kg, 100 mg/kg, 300 mg/kg, and the control group. The animals were grouped based on the body weights which had been previously measured prior to the experiment so that the average body weight of each group becomes equal. D-ribose was dissolved in distilled water and administered orally at 10 ml/kg once a day and repeatedly for one week in mice. To the control group, distilled water was administered orally instead of aqueous D-ribose solution. […] Briefly, the animals were forced to swim twice, i.e., for 15 minutes prior to the treatment of a test compound or distilled water on the day before the final administration, and further for 5 minutes one hour after the final administration on the following day. That is, the mice were forced to swim in a clear polycarbonate-made measuring cylinder (internal diameter: 10 cm, height: 25 cm) containing water up to a height of 10 cm at a temperature of 250° C., and the duration of the immobility during the second swimming was recorded.
The results were expressed as mean±standard error for each group. The significant differences between the groups were studied by Dunnett's multiple comparison test with a significance level of 5%.
Male10 ddY-strain male mice (5 weeks old, purchased from Japan SLC, Inc.) were used for each group as test animals. The animals were kept under the same conditions as in Example 1. The experiment was carried out on the four groups, such as the groups treated with D-ribose 100 mg/kg, potassium magnesium aspartate (Mg.K aspartate) 50 mg/kg, and D-ribose 100 mg/kg+Mg.K aspartate 50 mg/kg, and the control group. The animals were grouped based on the body weights which had been previously measured prior to the experiment so that the average body weight of each group becomes equal. D-ribose and potassium magnesium aspartate were dissolved in distilled water and administered orally at 10 ml/kg once a day and repeatedly for one week. […]
Male 10 ddY-strain mice (5 weeks old, purchased from Japan SLC, Inc.) were used for each group as test animals. The animals were grouped based on the body weights which had been previously measured prior to the experiment so that the average body weight of each group becomes equal. […]

[2] = tested on: rats; test: soaking fatigue test in rats; assay type: in vivo, rats (SD-strain); settings: orally twice a day divided, 5 days
Method: Male 10 SD-strain rats (7 weeks old, purchased from Japan SLC, Inc.) were used for each group as test animals. The animals were grouped based on the body weights which had been previously measured prior to the experiment so that the average body weight of each group becomes equal. The animals were kept under the same conditions as in Example 1. The experiment was carried out on the 3 groups, such as the groups treated with D-ribose at doses of 300 mg/kg, 1000 mg/kg, and the control group. To the D-ribose-treated groups, D-ribose was dissolved in distilled water for injection in a predetermined amount for each body weight, and the resulting aqueous solution was mandatorily administered orally to the rats at a dose of 10 ml/kg. To the control group, distilled water for injection was mandatorily administered orally instead of aqueous D-ribose solution at a dose of 10 ml/kg.
The soaking fatigue test in rats was carried out by a modification of the method of Tanaka (cf., Igaku-no-Ayumi, 204 (5), 362-364 (2003)). Briefly, the rats in each group were kept in a cage where water at 23±1° C. was filled at a water depth of about 1.5 cm for 5 days, during which D-ribose was orally administered to the rats twice a day at 10 A.M. and 3 P.M. with divided amount of the daily dose (300 mg/kg or 1000 mg/kg), i.e., at each time 150 mg/kg or 500 mg/kg, respectively, for 5 days in a row. Twenty-four hours after the last administration, the rats were loaded with a weight (about 20 g, about 8°% of the body weight) at a position of about ⅘ distant from the root. Each rat was forced to swim individually in a clear acrylic cylindrical water bath (inner diameter: 25 cm, height: 60 cm) containing warm water (25±2° C., water-depth: 50 cm). The time from the beginning of swimming until the nose of the rat sank down into the water for more than 10 seconds was measured.
The results were expressed as mean±standard error for each group. The significant differences between the groups were studied by Bonferroni/Dun multiple comparison test with a significance level of 5%.

[3] = tested on: reserpine-induced hypothermia; test: reserpine-induced hypothermia competitive test; assay type: in vivo, mice (ddY-strain)
Method: Male 8 ddY-strain mice (5 weeks old, purchased from Japan SLC, Inc.) were used for each group as test animals. The animals were kept under the same conditions as in Example 1. The experiment was carried out on the four groups such as the groups treated with D-ribose at doses of 30 mg/kg, 100 mg/kg, 300 mg/kg, and the control group. The animals were grouped based on the body temperature (rectal temperature) which had been previously measured prior to the experiment so that the average body temperature of each group becomes equal. D-ribose was dissolved in distilled water and administered orally at 10 ml/kg once a day and repeatedly for one week. To the control group, distilled water was administered orally instead of aqueous D-ribose solution. The reserpine-induced hypothermia competitive test was a modification of the method of Wachtel (cf., Neuropharmacology, 22 (3), p. 267-272 (1983)). Namely, a solution of reserpine (Daiichi Pharmaceutical Co. Ltd.) in an aqueous propylene glycol solution was subcutaneously administered to the mice in each group at a dose of 1 mg/kg (i.e., in an amount of 10 ml/kg) just before administration of a test compound or distilled water, and subsequently, D-ribose or distilled water were administered orally to the mice, and then the rectal temperature of each mouse was measured on 1, 2, 4, 6 and 8 hours after administration of D-ribose or distilled water. In the experiment, the reserpine treatment and the administration of the test compound were carried out during from 10:00 AM to 11:00 AM. The results were expressed as mean±standard error in each group. The significant differences between the groups were studied by Bonferroni/Dun multiple comparison test with a significance level of 5%. Male 8 ddY-strain mice (5 weeks old, purchased from Japan SLC, Inc.) were used for each group as test animals. The animals were kept under the same conditions as in Example 1. […] To the control group, distilled water was administered orally. The grouping, the administration of reserpine and the measurement of body temperature were carried out in the same manner as in Example 3. The results were expressed as mean±standard error for each group. The significant differences between the groups were studied by Bonferroni/Dunn multiple comparison test with a significance level of 5%.

[4] = tested on: human; test: evaluation of effect of maintaining concentration in human (random number table test); assay type: in vivo; settings: healthy volunteers; D-ribose 2.2 g/day for 7 days, crossover vs dextrin control
Excerpt: The effect of maintaining concentration by D-ribose in human can be evaluated by the test using a random number table (cf., Sports Mental Training for Winning Games, written by Yoshihide TAKAHATA, published by NATSUME CO, LTD., 2003).
Twenty healthy volunteers are grouped into two groups, i.e., the D-ribose 2.2 g/day-treated group, and the control group. The volunteers in the D-ribose 2.2 g/day-treated group take an aqueous solution of D-ribose (2.2 g), a roasted green tea extra (0.24 g) and sucralose (2 mg) in distilled water for injection per day. The volunteers in the control group take an aqueous solution of dextrin (2.2 g), a roasted green tea extra (0.24 g) and sucralose (2 mg) in distilled water per day. […]
The evaluation test for concentration power is carried out as follows. […] Then, the number of marked cells is compared between both groups and the concentration power is evaluated therefrom.
Further, after one-month washout period from the above evaluation test for concentration power, the volunteers in both groups are exchanged each other, and then the same test is carried out again on the volunteers. Combining the results of these two tests, the effect of maintaining concentration by D-ribose is comprehensively evaluated.

N[C@@H](CC(=O)O)C(=O)O.[K+].[Mg+2] [Mg.K aspartate, potassium magnesium aspartate]
duration of immobility ([1]; Example 2, Mg.K aspartate 50 mg/kg alone, orally once a day for one week): not significantly reduced

O=C[C@H](O)[C@H](O)[C@H](O)CO [D-ribose]
anti-fatigue effect (duration of swimming) ([2]; 300 mg/kg daily dose, swim 24 h after last administration): any significant anti-fatigue effect was observed | anti-fatigue effect (duration of swimming) ([2]; 1000 mg/kg daily dose, stress-related fatigue caused by breeding under soaking): significant anti-fatigue effect | duration of swimming longer than that in the control group ([2]; 1000 mg/kg daily dose, swim 24 h after last administration): about 70% | reserpine-induced hypothermia (rectal temperature) ([3]; Example 3, 30 mg/kg orally once a day for one week, reserpine 1 mg/kg s.c.): not significantly alleviated | reserpine-induced hypothermia (rectal temperature) ([3]; Example 3, 100 mg/kg orally once a day for one week, 4 or 6 hours after administration): significantly and nearly dose-relatively alleviated | reserpine-induced hypothermia (rectal temperature) ([3]; Example 3, 300 mg/kg orally once a day for one week, 4 or 6 hours after administration): significantly and nearly dose-relatively alleviated | reserpine-induced hypothermia (rectal temperature) ([3]; Example 4, D-ribose alone 100 mg/kg orally, at 4 and 6 hours after treatment): significantly alleviated | concentration power (number of marked cells) [4]: dominantly maintained | duration of immobility ([1]; Comparative Example 1, D-ribose 100 mg/kg and 300 mg/kg orally for one week): dose-depending reduction | duration of immobility ([1]; Example 1, 300 mg/kg orally once a day for one week, vs control group): significantly reduced | duration of immobility ([1]; Example 2, D-ribose 100 mg/kg alone, orally once a day for one week): not significantly reduced
